Data from article PMC6284575 (2018).

Tests used:
[1] = system: Spn class-II preQ1 riboswitch aptamer, A11Ap variant (RNA, riboswitch, 2-aminopurine at 11 (replacing A11)) CUUGGUGCUUAGCUUCUUUCACCAAGCAUAUUACACGCGGAUAACCGCCAAAGGA; experiment: 2-aminopurine fluorescence titration; conditions: 100 mM KCl, 2 mM MgCl2; 50 mM MOPS, pH 7.5, 293 K; 0.5 µM RNA; apparent
[2] = system: Tte class-I preQ1 riboswitch aptamer, U22Ap variant (RNA, riboswitch, 2-aminopurine at 22 (replacing U22)) CUGGGUCGCAGUAACCCCAGUUAACAAAACAAG; experiment: 2-aminopurine fluorescence titration; conditions: 100 mM KCl, 2 mM MgCl2; 50 mM MOPS, pH 7.5, 293 K; 0.5 µM RNA; apparent

| Compound | KD [1] | KD [2] |
| --- | --- | --- |
| [N-]=[N+]=NCCCCNCc1c[nH]c2nc(N)[nH]c(=O)c12 | 432 nM | 88 nM |
| [N-]=[N+]=NCCOCCNCc1c[nH]c2nc(N)[nH]c(=O)c12 | 203 nM | 167 nM |
| COCCOCCOCCNCc1c[nH]c2nc(N)[nH]c(=O)c12 | 4580 nM | 922 nM |
| Nc1nc2[nH]cc(CNCCCCCNCc3c[nH]c4nc(N)[nH]c(=O)c34)c2c(=O)[nH]1 | 1030 nM | 590 nM |
| [N-]=[N+]=NCCCNCc1c[nH]c2nc(N)[nH]c(=O)c12 | 254 nM | 30 nM |
| NCc1c[nH]c2nc(N)[nH]c(=O)c12 | 430 nM | 51 nM |
| NCCCNCc1c[nH]c2nc(N)[nH]c(=O)c12 | 97 nM | 32 nM |
| NCCCc1c[nH]c2nc(N)[nH]c(=O)c12 | 2830 nM | 71 nM |
| NCCCCNCc1c[nH]c2nc(N)[nH]c(=O)c12 | 148 nM | 41 nM |
